Laboratory results reported in ChEMBL document CHEMBL1201862, “PubChem BioAssay data set” (2004).
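A five-concentration, 48-hour dose response in 96-well plates underlies each endpoint, interpolated linearly between surrounding concentrations. GI50 marks 50% less growth.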 The source made the active and inactive calls. No stated cut-off is given here; in the data, active = GI50 up to about 1.1 µM and inactive = higher.

Experiments:
Assay in all cases: inhibition of tumour cell growth, NCI panel, 48 h
786-0 = test system: 786-0
ACHN = test system: ACHN
CAKI-1 = test system: CAKI-1
CCRF-CEM = test system: CCRF-CEM
COLO 205 = test system: COLO 205
DLD-1 = test system: DLD-1
DMS-114 = test system: DMS-114
EKVX = test system: EKVX
HCT-116 = test system: HCT-116
HCT-15 = test system: HCT-15
HL-60 = test system: HL-60
HOP-62 = test system: HOP-62
HOP-92 = test system: HOP-92
HT-29 = test system: HT-29
IGROV-1 = test system: IGROV-1
K562 = test system: K562
KM12 = test system: KM12
LOX IMVI = test system: LOX IMVI
LXFL 529 = test system: LXFL 529
M14 = test system: M14
M19-MEL = test system: M19-MEL
MOLT-4 = test system: MOLT-4
Malme-3M = test system: Malme-3M
NCI-H226 = test system: NCI-H226
NCI-H23 = test system: NCI-H23
NCI-H460 = test system: NCI-H460
NCI-H522 = test system: NCI-H522
OVCAR-3 = test system: OVCAR-3
OVCAR-4 = test system: OVCAR-4
OVCAR-5 = test system: OVCAR-5
OVCAR-8 = test system: OVCAR-8
RPMI-8226 = test system: RPMI-8226
RXF 393 = test system: RXF 393
SF-268 = test system: SF-268
SF-295 = test system: SF-295
SF-539 = test system: SF-539
SK-MEL-28 = test system: SK-MEL-28
SK-MEL-2 = test system: SK-MEL-2
SK-MEL-5 = test system: SK-MEL-5
SK-OV-3 = test system: SK-OV-3
SN12C = test system: SN12C
SNB-78 = test system: SNB-78
SR = test system: SR
SW-620 = test system: SW-620
TK-10 = test system: TK-10
U-251 = test system: U-251
UACC-62 = test system: UACC-62
UO-31 = test system: UO-31
XF498 = test system: XF498
DMS-273 = test system: DMS-273
HCC 2998 = test system: HCC 2998
HOP-18 = test system: HOP-18
KM-20L2 = test system: KM-20L2
SNB-19 = test system: SNB-19
UACC-257 = test system: UACC-257
A549 = test system: A549
SNB-75 = test system: SNB-75

## Cc1nc(=O)n2c(C)n[nH]c2c1C(=O)O
786-0
  GI50: > 100 µM (inactive)
ACHN
  GI50: > 100 µM (inactive)
CAKI-1
  GI50: > 100 µM (inactive)
CCRF-CEM
  GI50: > 100 µM (inactive)
COLO 205
  GI50: > 100 µM (inactive)
DLD-1
  GI50: > 100 µM (inactive)
DMS-114
  GI50: > 100 µM (inactive)
EKVX
  GI50: > 100 µM (inactive)
HCT-116
  GI50: > 100 µM (inactive)
HCT-15
  GI50: > 100 µM
HL-60
  GI50: > 100 µM (inactive)
HOP-62
  GI50: > 100 µM (inactive)
HOP-92
  GI50: > 100 µM (inactive)
HT-29
  GI50: > 100 µM (inactive)
IGROV-1
  GI50: > 100 µM (inactive)
K562
  GI50: > 100 µM (inactive)
KM12
  GI50: > 100 µM (inactive)
LOX IMVI
  GI50: > 100 µM (inactive)
LXFL 529
  GI50: > 100 µM (inactive)
M14
  GI50: > 100 µM (inactive)
M19-MEL
  GI50: > 100 µM (inactive)
MOLT-4
  GI50: > 100 µM (inactive)
Malme-3M
  GI50: > 100 µM (inactive)
NCI-H226
  GI50: > 100 µM (inactive)
NCI-H23
  GI50: > 100 µM (inactive)
NCI-H460
  GI50: > 100 µM (inactive)
NCI-H522
  GI50: > 100 µM (inactive)
OVCAR-3
  GI50: > 100 µM (inactive)
OVCAR-4
  GI50: > 100 µM (inactive)
OVCAR-5
  GI50: > 100 µM (inactive)
OVCAR-8
  GI50: > 100 µM (inactive)
RPMI-8226
  GI50: > 100 µM (inactive)
RXF 393
  GI50: 31.1 µM (inactive)
SF-268
  GI50: > 100 µM (inactive)
SF-295
  GI50: > 100 µM (inactive)
SF-539
  GI50: > 100 µM (inactive)
SK-MEL-28
  GI50: > 100 µM (inactive)
SK-MEL-2
  GI50: > 100 µM (inactive)
SK-MEL-5
  GI50: 10 µM (inactive)
SK-OV-3
  GI50: > 100 µM (inactive)
SN12C
  GI50: > 100 µM (inactive)
SNB-78
  GI50: > 100 µM (inactive)
SR
  GI50: > 100 µM (inactive)
SW-620
  GI50: > 100 µM (inactive)
TK-10
  GI50: > 100 µM (inactive)
U-251
  GI50: > 100 µM (inactive)
UACC-62
  GI50: > 100 µM (inactive)
UO-31
  GI50: > 100 µM (inactive)
XF498
  GI50: > 100 µM (inactive)

## O=C(Nc1cccc(C(F)(F)F)c1)c1cc(-c2ccccc2)nc(S)n1
CAKI-1
  GI50: > 100 µM (inactive)
COLO 205
  GI50: > 100 µM (inactive)
DMS-273
  GI50: > 100 µM (inactive)
HCC 2998
  GI50: > 100 µM (inactive)
HCT-116
  GI50: > 100 µM (inactive)
HCT-15
  GI50: > 100 µM
HL-60
  GI50: > 100 µM (inactive)
HOP-18
  GI50: > 100 µM (inactive)
HOP-62
  GI50: > 100 µM (inactive)
HOP-92
  GI50: > 100 µM (inactive)
HT-29
  GI50: > 100 µM (inactive)
KM-20L2
  GI50: > 100 µM (inactive)
KM12
  GI50: > 100 µM (inactive)
LOX IMVI
  GI50: > 100 µM (inactive)
LXFL 529
  GI50: > 100 µM (inactive)
M14
  GI50: > 100 µM (inactive)
M19-MEL
  GI50: > 100 µM (inactive)
Malme-3M
  GI50: > 100 µM (inactive)
NCI-H226
  GI50: > 100 µM (inactive)
NCI-H460
  GI50: > 100 µM (inactive)
OVCAR-3
  GI50: > 100 µM (inactive)
OVCAR-4
  GI50: > 100 µM (inactive)
OVCAR-5
  GI50: > 100 µM (inactive)
OVCAR-8
  GI50: > 100 µM (inactive)
SF-295
  GI50: > 100 µM (inactive)
SK-MEL-2
  GI50: > 100 µM (inactive)
SN12C
  GI50: > 100 µM (inactive)
SNB-19
  GI50: > 100 µM (inactive)
SR
  GI50: > 100 µM (inactive)
SW-620
  GI50: > 100 µM (inactive)
UACC-257
  GI50: > 100 µM (inactive)
UO-31
  GI50: > 100 µM (inactive)

## COc1ccc(/C=N/n2cnc3c(c2=O)S/C(=C2/SC(=S)N(c4ccc(C)cc4)C2=O)N3c2ccccc2)cc1
A549
  GI50: 41.3 µM (inactive)
ACHN
  GI50: 49.1 µM (inactive)
CAKI-1
  GI50: > 10 µM (inactive)
CCRF-CEM
  GI50: 43.6 µM (inactive)
COLO 205
  GI50: > 100 µM (inactive)
DMS-114
  GI50: 74.5 µM (inactive)
DMS-273
  GI50: 38.9 µM (inactive)
EKVX
  GI50: > 100 µM (inactive)
HCC 2998
  GI50: > 100 µM (inactive)
HCT-116
  GI50: 56 µM (inactive)
HCT-15
  GI50: > 100 µM
HL-60
  GI50: 58.5 µM (inactive)
HOP-62
  GI50: 22.8 µM (inactive)
HOP-92
  GI50: 25.8 µM (inactive)
HT-29
  GI50: > 100 µM (inactive)
IGROV-1
  GI50: 42.7 µM (inactive)
K562
  GI50: > 10 µM (inactive)
KM-20L2
  GI50: > 100 µM (inactive)
KM12
  GI50: > 100 µM (inactive)
LOX IMVI
  GI50: > 100 µM (inactive)
LXFL 529
  GI50: > 100 µM (inactive)
M14
  GI50: 19.5 µM (inactive)
M19-MEL
  GI50: > 100 µM (inactive)
MOLT-4
  GI50: > 10 µM (inactive)
Malme-3M
  GI50: 19.7 µM (inactive)
NCI-H226
  GI50: > 100 µM (inactive)
NCI-H460
  GI50: 68.7 µM (inactive)
NCI-H522
  GI50: 52.4 µM (inactive)
OVCAR-3
  GI50: 29.9 µM (inactive)
OVCAR-4
  GI50: 17.7 µM (inactive)
OVCAR-5
  GI50: > 100 µM (inactive)
OVCAR-8
  GI50: 70.5 µM (inactive)
RPMI-8226
  GI50: 40.8 µM (inactive)
RXF 393
  GI50: 17.3 µM (inactive)
SF-268
  GI50: 29.4 µM (inactive)
SF-295
  GI50: 11.6 µM (inactive)
SF-539
  GI50: 30.5 µM (inactive)
SK-MEL-28
  GI50: > 100 µM (inactive)
SK-MEL-2
  GI50: 79.4 µM (inactive)
SK-OV-3
  GI50: > 100 µM (inactive)
SN12C
  GI50: > 100 µM (inactive)
SNB-19
  GI50: 28.4 µM (inactive)
SNB-75
  GI50: > 100 µM (inactive)
SR
  GI50: 31.6 µM (inactive)
SW-620
  GI50: > 100 µM (inactive)
TK-10
  GI50: > 100 µM (inactive)
UACC-62
  GI50: 17.4 µM (inactive)
UO-31
  GI50: > 100 µM (inactive)
